Values joined by “and” are separate entries in the source; they are usually repeats but may differ in a detail not shown here. Equal values may be shown once.
System: rat brain benzodiazepine binding sites on GABAAR
Assay: Rat brain receptor occupancy assay ([3H]flumazenil binding)
Format: in vivo
Conditions: for occupancy of rat brain GABAA receptors (benzodiazepine binding sites): mean±SEM
Procedure: The occupancy of rat brain benzodiazepine binding sites on GABAAR by compound was measured by its ability to inhibit the ex vivo binding of [^3H]Ro15-1788 ([^3H] flumazenil) in brain samples from rats dosed with the test compound.
Male Sprague Dawley rats (c. 200-300 g) were used for the studies. All animals were acclimatized 5-7 days before dosing and were handled and weighed prior to treatments.
Rats (3 to 6 per group) were dosed p.o. with either the vehicle or the test compound suspended in vehicle (doses of 0.1 to 10 mg/kg) at a volume of 5 mL per kg of body weight. To block all benzodiazepine binding sites and therefore define the level of non-specific binding of [^3H]Ro15-1788, a separate group of animals received a dose of 5 mg/kg p.o. of bretazenil (5 mL/kg) made up in 70% PEG, 30 minutes before the animals were killed.
At predetermined time intervals, animals were culled via stunning and cervical dislocation. Brain tissues were harvested promptly, and each left and right hemisphere were snap frozen and stored at −80° C.
On the day of the brain samples analysis, each left hemisphere was weighed and homogenized in 8 volumes of ice-cold 10 mM potassium phosphate buffer (pH 7.4). 300 μL of the mixture was further diluted by adding it to a tube containing 1050 μL of assay buffer and [^3H] flumazenil further added to make a total volume of 1500 μL and achieve a final concentration of 4 nM, mixing immediately and incubating on ice.
Following 20 seconds incubation time, the sample was rapidly filtered through Whatman GF/B filter in triplicates (500 μL/filter) using a vacuum filtration manifold. The filters were subsequently washed with 10 mL of ice cold 50 mM Tris buffer (pH 7.4) and then placed into scintillation vials containing scintillation fluid. Filter-bound radioactivity was counted on a TriCarb2900 scintillation counter.
In each experiment, the value of nonspecific binding defined using bretazenil was subtracted from all groups to give values of specific binding.
The percent GABAAR occupancy of the test compound at a specific dose and treatment time was calculated as the percentage by which the specific binding in the vehicle treated group was inhibited by the drug. Therefore, the % occupancy of the modulator in drug-treated animals was expressed as: 100−((Average test compound−Average bretazenil)/(Average vehicle−Average Bretazenil)*100) where ‘average test compound’, ‘average bretazenil’ and ‘average vehicle’ are the average counts in test compound-, bretazenil- and vehicle-treated animals, respectively.

Compound	occupancy of rat brain GABAA receptors (benzodiazepine binding sites) (10 mg/kg p.o.)	occupancy of rat brain benzodiazepine binding sites, dose dependence (doses 0.1 to 10 mg/kg p.o.)	occupancy of rat brain benzodiazepine binding sites, dose dependence (doses 0.3 to 10 mg/kg p.o.)	occupancy of rat brain GABAA receptors (benzodiazepine binding sites) (1 mg/kg p.o.) [%]
CCCNC(=O)c1c(N)c2cccc(-c3cnccc3OC)c2[nH]c1=O [Example 17, 4-Amino-8-(4-methoxy-3-pyridyl)-2-oxo-N-propyl-1H-quinoline-3-carboxamide]	101+0.5% and 101±0.5%	dose-dependent	–	–
CCCNC(=O)c1c(N)c2cccc(-c3cnc(C)cc3OC)c2[nH]c1=O [Example 18, 4-Amino-8-(4-methoxy-6-methyl-3-pyridyl)-2-oxo-N-propyl-1H-quinoline-3-carboxamide]	–	–	dose-dependent	–
CCCNC(=O)c1c(N)c2cccc(-c3nc(C)ncc3F)c2[nH]c1=O [Example 40, 4-Amino-8-(5-fluoro-2-methyl-pyrimidin-4-yl)-2-oxo-N-propyl-1H-quinoline-3-carboxamide]	–	dose-dependent	–	97.3±2.0
